Results on one molecule are retold here after patent publication US10471043B2, “Compounds and methods of treating bacterial infections” (ULTUPHARMA AB, priority 2015, dated 2019).

≈ marks a conversion by molar mass, not a printed value.

One assay relates to S. pneumoniae. The experiment in a line: Antimicrobial Susceptibility Test by Broth Microdilution, M07-A9 CLSI. The format is cell-based. The following applies: Streptococcus pneumoniae. In general terms: Dilution methods test growth across graded concentrations, often in twofold steps.
Another assay concerns Serratia marescens. The assay is described as follows: MIC panel of Gram-negative bacteria (Table 7). The format is cell-based. The following applies: EN0454 Serratia marescens G− PKL 3692.

As a reminder, the MIC is the least concentration at which growth counts as inhibited.

With `CCCCCCCCCC1CC(O)=C(C(=O)CCC)C(=O)O1` (stereo not drawn) [Ex. 1, 3-Butyryl-6-nonyl-4-hydroxy-5,6-dihydro-2H-pyran-2-one], the MIC in the assay with S. pneumoniae (ATCC49619, S. pneumoniae ATCC 49619, QC strain) was found to be 4 µg/mL (≈ 12.9 µM); in the assay on S. pneumoniae (BAA1407, S. pneumoniae BAA1407, Macrolide-resistant (M + MLS)), 8 µg/mL; in the assay with S. pneumoniae (S. pneumoniae 19A-TN, Quinolone-sensitive) it was 8 µg/mL (≈ 25.8 µM); with S. pneumoniae (S. pneumoniae 158bg, Macrolide-resistant (M)), 4 µg/mL (≈ 12.9 µM); against S. pneumoniae (S. pneumoniae 956, Macrolide-resistant (MLSc)) it was 4 µg/mL (≈ 12.9 µM); in the assay on S. pneumoniae (S. pneumoniae SP030, Macrolide- sensitive), 8 µg/mL (≈ 25.8 µM). Further, the MIC against S. pneumoniae (S. pneumoniae TE 122-024, Quinolone-resistant) is 8 µg/mL (≈ 25.8 µM); in the assay on S. pneumoniae (S. pneumoniae TE 122-026, Tetracycline-resistant) it was 4 µg/mL (≈ 12.9 µM); in the assay on Serratia marescens, over 64 µg/mL.
